Read-outs that look alike come from different tables or passages of the source.
Legend:
human D2R/β-arrestin [1] = target: T1, human D2R/β-arrestin (Homo sapiens (Human), UniProt P14416); conditions: CHO-K1 cells expressing human D2R/β-arrestin, antagonist mode, quinpirole 130 nM; for IC50: read-out: β-arrestin Antagonist
Description: (§1) Cells were prepared for assays by growing cultures for up to 2 weeks (from about 6-20 passages). A vial of frozen cells was thawed in a water bath held at 37° C. The cells were then transferred into a 50 ml tube with 10 ml growth media. The vial was rinsed with growth media and the contents transferred to the 50 ml tube. The 50 ml tube was centrifuged at 1200 rpm for 5 minutes at room temperature. […] When the cells reached about 90% confluence (approximately 3 days between passages), the cells were passaged and used for either the agonist or antagonist assays as described below.
(§2) The cells were prepared for β-arrestin assays as described above. The assays were performed using a PathHunter® β-Arrestin Detecting Kit (DiscoveRX). The cells were grown on 225 mm dishes, then washed once with 1×PBS (Cellgro), followed by digestion with 2.5 ml 1× Detachment reagent (DRX 92-0009) for approximately 2 minutes.

human D2R/β-arrestin [2] = target: T1, human D2R/β-arrestin; assay: Gi/cAMP agonist assay (Lance Ultra cAMP, forskolin); format: cell-based; conditions: CHO-K1 cells expressing human D2R/β-arrestin; agonist mode, 2.5 μM forskolin
Description: Eu-cAMP tracer solution (10 μl, PerkinElmer, 360 μl of Tracer in 17.64 ml kit buffer) and ULight-anti-cAMP solution (10 μl, 120 μL antibody in 17.88 ml kit buffer) was then added to each well.

human D2R/β-arrestin [3] = target: T1, human D2R/β-arrestin; assay: β-arrestin agonist assay (PathHunter); format: cell-based; conditions: CHO-K1 cells expressing human D2R/β-arrestin; agonist mode
Description: The detection reagent (9.6 μL, Buffer:Emerald II:Galactor-Star in a 19:5:1 ratio, i.e., 14.06 mL:3.7 mL:0.74 mL=18.5 mL) was then added to the agonist plates.

D2 receptor = D2 receptor (Homo sapiens (Human), UniProt P14416); assay: D2 radioligand binding assay
Chain of D2 receptor (P14416 whole entry): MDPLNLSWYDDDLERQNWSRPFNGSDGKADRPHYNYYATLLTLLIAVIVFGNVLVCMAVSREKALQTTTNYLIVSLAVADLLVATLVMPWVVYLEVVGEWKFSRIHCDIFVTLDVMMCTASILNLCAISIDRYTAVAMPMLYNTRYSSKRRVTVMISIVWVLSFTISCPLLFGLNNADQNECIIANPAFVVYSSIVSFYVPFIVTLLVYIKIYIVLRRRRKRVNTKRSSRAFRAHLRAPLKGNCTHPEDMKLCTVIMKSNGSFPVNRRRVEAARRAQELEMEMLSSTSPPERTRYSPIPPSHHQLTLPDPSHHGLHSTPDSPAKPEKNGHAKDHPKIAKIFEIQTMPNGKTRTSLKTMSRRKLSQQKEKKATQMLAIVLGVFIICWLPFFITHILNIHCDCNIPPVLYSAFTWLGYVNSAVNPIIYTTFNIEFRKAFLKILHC

human D2R/β-arrestin [4] = target: T1, human D2R/β-arrestin; conditions: read-out: cAMP Antagonist; CHO-K1 cells expressing human D2R/β-arrestin; antagonist mode, 2.5 μM forskolin and 2.7 nM quinpirole
human D2R/β-arrestin [5] = target: T1, human D2R/β-arrestin; assay: cell-based; conditions: cAMP Antagonist, CHO-K1 cells expressing human D2R/β-arrestin; antagonist mode, 2.5 μM forskolin and 2.7 nM quinpirole
Brain protein binding = format: in vitro ADME
[6] = Pharmacokinetic and brain distribution study in mice; format: in vivo; conditions: single intraperitoneal dose 30 mg/kg, male C57BL/6 mice; for half-life / AUC / Cmax: mouse, ip
Description: Pharmacokinetic Studies on Mice Brains
Twelve male C57BL/6 mice were weighed and administered intraperitoneally with a dose of test compound (Examples 90, 157, 125) solution formulation. The dosing volume administered for the intraperitoneal route was at 10 mL/kg. Blood samples (approximately […]) were collected from retro-orbital plexus of each mouse under light isoflurane anesthesia at 0.08, 0.5, 1, 2, 4, and 8 hr. Following the collection of blood, plasma was also harvested by centrifugation and stored at −70° C. until analysis. After collection of plasma, the animals were euthanized and brain samples were isolated at 0.08, 0.5, 1, 2, 4, and 8 hr. Tissue samples (brain) were homogenized using ice-cold phosphate buffer saline (pH 7.4) and homogenates were stored below −70° C. until analysis. Total homogenate volume was three times the tissue weight. Concentrations of test compound in mouse plasma and brain samples were determined by LC-MS/MS method.
Identical extraction procedures were used for the plasma/brain homogenate study samples and the spiked plasma calibration standards: A 25 μL sample of either study sample (plasma/brain) or spiked calibration standard was added to individual pre-labeled micro-centrifuge tubes. A volume of 100 μL of IS (antipyrine, 500 ng/mL) prepared in acetonitrile was then added to the micro-centrifuge tubes, except in a sample used as a negative control where only acetonitrile was added and vortexed for 5 minutes. Samples were centrifuged for 20 minutes at the speed of 4000 rpm at 4° C. Following centrifugation, 100 μL of the supernatant was sampled from each centrifuge tube and transferred into insert vials. These vials remained within the auto-sampler for the LC/MS/MS analysis. Standards used for calibration were prepared by spiking 10 μL of the test compound in 190 μL of control (used as a negative control) mouse plasma/brain homogenate.
The plasma and brain concentration-time data of test compounds was provided for data analysis. The plasma and brain concentration-time data was then used for the pharmacokinetic analysis. Non-Compartmental-Analysis module in Phoenix® WinNonlin® (Version 6.3) was used to assess the pharmacokinetic parameters. Peak plasma concentrations (Cmax) and time for the peak plasma concentrations (Tmax) were the observed values. The areas under the concentration time curve (AUClast and AUCinf) were calculated by linear trapezoidal rule. The terminal elimination rate constant, ke was determined by regression analysis of the linear terminal portion of the log plasma concentration-time curve.
Illustrative results are presented in FIG. 2, the pharmacokinetic parameters are as follow: […]

human D2R/β-arrestin [7] = target: T1, human D2R/β-arrestin; assay: cell-based; conditions: β-arrestin Antagonist, CHO-K1 cells expressing human D2R/β-arrestin; antagonist mode, quinpirole 130 nM
Description: as §1, §2

[8] = brain, read-out: Brain T1/2 (converted)
[9] = plasma, read-out: Plasma T1/2 (converted)

T1 sequence (P14416 whole entry): as above

| Compound | IC50 (human D2R/β-arrestin [1]) [µM] | EC50 (human D2R/β-arrestin [3]) [µM] | Ki (D2 receptor) [µM] | EC50 (human D2R/β-arrestin [2]) [µM] | IC50 (human D2R/β-arrestin [4]) [µM] | IC50 (human D2R/β-arrestin [5]) [µM] | IC50 (human D2R/β-arrestin [7]) [µM] | further results |
| --- | --- | --- | --- | --- | --- | --- | --- | --- |
| O=C1CCc2ccc(OCCCCN3CCCN(c4cccc(Cl)c4Cl)CC3)nc2N1 [UNC9975, reference compound] | – | – | – | – | – | – | – | β-arrestin Antagonist (human D2R/β-arrestin [1]): B or A; cAMP Agonist (human D2R/β-arrestin [2]): B or A |
| CC1(Oc2ccc(Cl)cc2)CCN(CCOc2ccc3ncsc3c2)C1 (centres unmarked) [Compound 18b] | 1 to 10 | > 30 | 1 to 10 | 0.1 to 1 | > 30 | – | – | – |
| CC1(Oc2ccc(Cl)cc2)CCN(CCOc2ccc(C(F)(F)F)cc2)CC1 [Compound 125, 4-(4-Chlorophenoxy)-4-methyl-1-(2-(4-(trifluoromethyl)phenoxy)ethyl) piperidine] | – | 10 to 30 | 1 to 10 | 0.1 to 1 | – | > 30 | > 30 | fraction unbound (Brain protein binding): 0.002; Brain AUC ([6]; brain): 222.3 µM·h; Brain Cmax ([6]; brain): 37.9 µM; half-life [6, 8]: 7 h; AUC ([6]; plasma): 69.6 µM·h; Cmax ([6]; plasma): 19.8 µM; half-life [6, 9]: 13.4 h |
| CC1(Oc2ccncc2)CCN(CCOc2ccccc2)C1 (centres unmarked) [Example 59b] | > 30 | 1 to 10 | 10 to 30 | < 0.1 | > 30 | – | – | – |
| Clc1cccc(C2CCN(CCCOc3ccc4scnc4c3)CC2)c1Cl [UNC9994, reference compound] | – | – | – | – | – | – | – | β-arrestin Antagonist (human D2R/β-arrestin [1]): B or C; β-arrestin Agonist (human D2R/β-arrestin [3]): B or C |
| CC1(Oc2ccc(Cl)cc2)CCCN(CCOc2ccccc2F)C1 (centres unmarked) [Example 98a] | < 0.1 | > 30 | < 0.1 | > 30 | < 0.1 | – | – | – |
| CC1(C(=O)c2ccccc2)CCN(CCOc2ccccc2C(F)(F)F)CC1 [Example 106, (4-Methyl-1-(2-(2-(trifluoromethyl)phenoxy)ethyl)piperidin-4-yl) (phenyl)methanone] | – | > 30 | < 0.1 | > 30 | – | < 0.1 | 0.1 to 1 | – |
| Clc1ccc2c(c1)CC1(CCN(CCOc3ccccc3)C1)O2 (centres unmarked) [Compound 144, 5-chloro-1′-(2-phenoxyethyl)-3H-spiro[benzofuran-2,3′-pyrrolidine]] | – | > 30 | 0.1 to 1 | > 30 | – | 0.1 to 1 | 1 to 10 | – |

The next lines start with results.

| IC50 (human D2R/β-arrestin [1]) [µM] | EC50 (human D2R/β-arrestin [3]) [µM] | Ki (D2 receptor) [µM] | EC50 (human D2R/β-arrestin [2]) [µM] | IC50 (human D2R/β-arrestin [4]) [µM] | IC50 (human D2R/β-arrestin [5]) [µM] | IC50 (human D2R/β-arrestin [7]) [µM] | Compound | further results |
| --- | --- | --- | --- | --- | --- | --- | --- | --- |
| 0.1 to 1 | > 30 | 0.1 to 1 | < 0.1 | > 30 | – | – | FC(F)(F)c1ccccc1OCCN1CCC2(CC1)CC2c1ccccc1 (centres unmarked) [Example 102a] | – |
| 1 to 10 | > 30 | 0.1 to 1 | < 0.1 | – | 0.1 to 1 | – | CC1(C(=O)Nc2ccccc2)CCN(CC2COc3ccccc3O2)CC1 (single isomer, unassigned) [Compound 204b, 1-((2,3-dihydrobenzo[b][1,4]dioxin-2-yl)methyl)-4-methyl-N-phenylpiperidine-4-carboxamide] | – |
| – | > 30 | 0.1 to 1 | < 0.1 | – | > 30 | 0.1 to 1 | CC1(Oc2ccc(Cl)cc2)CCN(CCOc2cc(F)ccc2C(F)(F)F)CC1 [Compound 122, 4-(4-Chlorophenoxy)-1-(2-(5-fluoro-2-(trifluoromethyl)phenoxy)ethyl)-4-methylpiperidine] | – |
| – | > 30 | 0.1 to 1 | 0.1 to 1 | – | 0.1 to 1 | 0.1 to 1 | CC1(Oc2ccc(Cl)cc2)CCN(CCOc2ccc(F)cc2C(F)(F)F)CC1 [Compound 157, 4-(4-chlorophenoxy)-1-(2-(4-fluoro-2-(trifluoromethyl)phenoxy)ethyl)-4-methylpiperidine] | fraction unbound (Brain protein binding): < 0.001; Brain AUC ([6]; brain): 70.4 µM·h; Brain Cmax ([6]; brain): 7.03 µM; half-life [6, 8]: 6 h; AUC ([6]; plasma): 14 µM·h; Cmax ([6]; plasma): 2.47 µM; half-life [6, 9]: 6.2 h |
